Earlier results in patent publication US5348748A, “Pulsatile once-a-day delivery systems for minocycline” (American Cyanamid Company, priority 1993, dated 1994).

Experiments:
[1] = test system: wide range of gram-negative and gram-positive bacteria; conditions: PDR 43rd Ed.
[2] = taken with food

CN(C)c1ccc(O)c2c1C[C@H]1C[C@H]3[C@H](N(C)C)C(=O)C(C(N)=O)=C(O)[C@@]3(O)C(=O)C1=C2O [minocycline, 7-dimethylamino-6-deoxy-6-demethyltetracycline]
susceptibility of organisms in words [1]: susceptible
half life [2]: 14 to 16 h
absorption in the lower gastrointestinal tract in words: reduced absorption in the lower gastrointestinal tract
